Measurements from ChEMBL document CHEMBL5550095 (Bioorg Med Chem, 2024).
The source made the active and inactive calls. No cut-off for these calls is given here.

Columns and labels:
[1] = Selectivity index, ratio of CC50 for human HepG2 cells to EC50 for Plasmodium falciparum K1; type: toxicity; conditions: read-out: Ratio CC50/EC50
Plasmodium falciparum = experiment: Antiplasmodial activity against Plasmodium falciparum K1 infected in erythrocytes assessed as reduction in parasite DNA after 72 hrs by SYBR Green I fluorescence based assay; type: functional, organism-based; conditions: K1, Erythrocyte
[2] = Half-life in mouse plasma; type: ADME, cell-free
[3] = Half-life in mouse liver microsomes; type: ADME, Microsome
[4] = biological target: Bifunctional dihydrofolate reductase-thymidylate synthase (Plasmodium falciparum K1) (UniProt P13922); experiment: Inhibition of Plasmodium falciparum DHFR
Bifunctional dihydrofolate reductase-thymidylate synthase (Plasmodium falciparum K1), sequence (P13922 whole entry, looked up): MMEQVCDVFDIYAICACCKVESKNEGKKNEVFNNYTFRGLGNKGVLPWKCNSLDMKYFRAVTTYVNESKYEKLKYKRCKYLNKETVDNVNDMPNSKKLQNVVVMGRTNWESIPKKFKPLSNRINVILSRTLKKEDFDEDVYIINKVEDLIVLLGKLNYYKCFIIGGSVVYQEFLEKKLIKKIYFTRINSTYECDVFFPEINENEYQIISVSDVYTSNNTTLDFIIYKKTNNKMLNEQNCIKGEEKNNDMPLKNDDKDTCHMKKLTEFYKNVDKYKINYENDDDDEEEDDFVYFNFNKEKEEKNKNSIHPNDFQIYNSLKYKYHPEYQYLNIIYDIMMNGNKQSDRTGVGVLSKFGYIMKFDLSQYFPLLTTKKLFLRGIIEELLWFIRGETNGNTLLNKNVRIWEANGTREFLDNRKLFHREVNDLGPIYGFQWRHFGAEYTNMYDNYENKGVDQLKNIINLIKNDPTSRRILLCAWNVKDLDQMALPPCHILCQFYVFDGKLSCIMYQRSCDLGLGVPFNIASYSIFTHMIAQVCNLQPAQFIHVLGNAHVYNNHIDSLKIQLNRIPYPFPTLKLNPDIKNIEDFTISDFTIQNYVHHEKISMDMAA

[5] = Lipophilicity, logD of the compound at pH 7.4; type: physicochemical; conditions: buffer
[6] = Cytotoxicity against human HepG2 cells incubated for 72 hrs by MTT assay; type: toxicity, cell-based
[7] = Inhibition of Plasmodium falciparum PYK-1

Row | Structure (SMILES) | selectivity ratio [1] | EC50 (Plasmodium falciparum) [µM] | also measured
1 | C[C@H]1c2cccc(O)c2C(=O)C2=C(O)[C@]3(O)C(=O)C(C(N)=O)=C(O)[C@@H](N(C)C)[C@@H]3[C@@H](O)[C@@H]21 [DOXYCYCLINE ANHYDROUS] | 4 | 5 | –
2 | Clc1ccc(Nc2nc(C(Cl)(Cl)Cl)nc3ccccc23)c(Cl)c1 | – | – | half-life [2]: > 360 min; half-life [3]: 18 min; inhibition [4]: Active; logD [5]: 3.6
3 | C[C@H]1[C@H](OC(=O)CCC(=O)O)O[C@@H]2O[C@@]3(C)CC[C@H]4[C@H](C)CC[C@@H]1[C@@]24OO3 [ARTESUNATE] | – | 0.004 | –
4 | CC(C)(C)OC(=O)NCCOCCOCCNCc1ccc2c(Nc3ccc(Cl)cc3Cl)nc(C(Cl)(Cl)Cl)nc2c1 | 32 | 0.6 | CC50 at 72 h [6]: 19 µM
5 | O=C(O)C(=O)O [OXALIC ACID] | – | – | IC50 [7]: 150 µM
6 | CC(C)(C)OC(=O)NCCCOCCOCCOCCCNCc1ccc2c(Nc3ccc(Cl)cc3Cl)nc(C(Cl)(Cl)Cl)nc2c1 | 21 | 0.15 | CC50 at 72 h [6]: 3.1 µM
7 | Cc1ccc(C(=O)Nc2ccc(S(=O)(=O)O)c3cc(S(=O)(=O)O)cc(S(=O)(=O)O)c23)cc1NC(=O)c1cccc(NC(=O)Nc2cccc(C(=O)Nc3cc(C(=O)Nc4ccc(S(=O)(=O)O)c5cc(S(=O)(=O)O)cc(S(=O)(=O)O)c45)ccc3C)c2)c1 [SURAMIN] | – | – | IC50 [7]: 128 µM
8 | CCN(CC)CCCC(C)Nc1ccnc2cc(Cl)ccc12 (configuration not stated) [CHLOROQUINE] | 60 | 0.5 | –
